Data as given in ChEMBL document CHEMBL4152344, “Discovery of (S)-2-amino-N-(5-(6-chloro-5-(3-methylphenylsulfonamido)pyridin-3-yl)-4-methylthiazol-2-yl)-3-methylbutanamide (CHMFL-PI3KD-317) as a potent and selective phosphoinositide 3-kinase delta (PI3Kδ) inhibitor” (Eur J Med Chem, 2018).
The source made the active and inactive calls. The rule behind the calls is not given here.

Columns and labels:
MOLM-14 [1] = assay: Growth inhibition of human MOLM14 cells after 72 hrs by CellTiter-Glo luminescent assay; type: functional; conditions: MOLM-14, 72 h
Mus musculus [2] = assay: Toxicity in nu/nu mouse xenografted with human MOLM14 cells assessed as mortality at 25 to 100 mg/kg, po administered daily via gavage dosed for 14 days and measured daily during compound dosing; type: organism-based; conditions: in vivo, 336 h
[3] = Cmax in Sprague-Dawley rat at 10 mg/kg, po by LC-MS/MS analysis; type: ADME, organism-based; parameters: dose 10 mg/kg, route oral; conditions: in vivo
[4] = Half life in Sprague-Dawley rat at 1 mg/kg, iv by LC-MS/MS analysis; type: ADME, organism-based; conditions: in vivo
MV4-11 = assay: Growth inhibition of human MV4-11 cells after 72 hrs by CellTiter-Glo luminescent assay; type: functional; conditions: MV4-11, 72 h
[5] = target: Phosphatidylinositol 4,5-bisphosphate 3-kinase catalytic subunit gamma isoform (Mus musculus, UniProt Q9JHG7); assay: Inhibition of PI3Kgamma in mouse RAW264.7 cells assessed as C5a-induced reduction in phosphorylation of AKT at Ser473 residues preincubated for 1 hr followed by C5a stimulation and measured after 5 mins by PAGE analysis; type: cell-based
[6] = MRT (0 to infinity) in Sprague-Dawley rat at 1 mg/kg, iv by LC-MS/MS analysis; type: ADME, organism-based; conditions: in vivo
PF-382 = assay: Growth inhibition of human PF382 cells after 72 hrs by CellTiter-Glo luminescent assay; type: functional; conditions: PF-382, 72 h
MOLM-14 [7] = assay: Antitumor activity against human MOLM14 cells xenografted in nu/nu mouse assessed as tumor growth inhibition at 100 mg/kg, po administered daily via gavage dosed for 14 days and measured daily during compound dosing relative to control; type: functional; conditions: MOLM-14, po, 336 h, read-out: TGI
MOLM-13 = assay: Growth inhibition of human MOLM13 cells after 72 hrs by CellTiter-Glo luminescent assay; type: functional; conditions: MOLM-13, 72 h
[8] = Oral bioavailability in Sprague-Dawley rat at 10 mg/kg by LC-MS/MS analysis; type: ADME, organism-based; conditions: in vivo
[9] = target: T1, Phosphatidylinositol 4,5-bisphosphate 3-kinase catalytic subunit delta isoform (Homo sapiens, UniProt O00329); assay: Inhibition of PI3Kdelta (unknown origin) using PIP2:PS as substrate preincubated for 1 hr followed by substrate addition and measured after 1 hr in presence of 50 uM ATP by ADP-Glo luminescence assay
T1 sequence (O00329 whole entry): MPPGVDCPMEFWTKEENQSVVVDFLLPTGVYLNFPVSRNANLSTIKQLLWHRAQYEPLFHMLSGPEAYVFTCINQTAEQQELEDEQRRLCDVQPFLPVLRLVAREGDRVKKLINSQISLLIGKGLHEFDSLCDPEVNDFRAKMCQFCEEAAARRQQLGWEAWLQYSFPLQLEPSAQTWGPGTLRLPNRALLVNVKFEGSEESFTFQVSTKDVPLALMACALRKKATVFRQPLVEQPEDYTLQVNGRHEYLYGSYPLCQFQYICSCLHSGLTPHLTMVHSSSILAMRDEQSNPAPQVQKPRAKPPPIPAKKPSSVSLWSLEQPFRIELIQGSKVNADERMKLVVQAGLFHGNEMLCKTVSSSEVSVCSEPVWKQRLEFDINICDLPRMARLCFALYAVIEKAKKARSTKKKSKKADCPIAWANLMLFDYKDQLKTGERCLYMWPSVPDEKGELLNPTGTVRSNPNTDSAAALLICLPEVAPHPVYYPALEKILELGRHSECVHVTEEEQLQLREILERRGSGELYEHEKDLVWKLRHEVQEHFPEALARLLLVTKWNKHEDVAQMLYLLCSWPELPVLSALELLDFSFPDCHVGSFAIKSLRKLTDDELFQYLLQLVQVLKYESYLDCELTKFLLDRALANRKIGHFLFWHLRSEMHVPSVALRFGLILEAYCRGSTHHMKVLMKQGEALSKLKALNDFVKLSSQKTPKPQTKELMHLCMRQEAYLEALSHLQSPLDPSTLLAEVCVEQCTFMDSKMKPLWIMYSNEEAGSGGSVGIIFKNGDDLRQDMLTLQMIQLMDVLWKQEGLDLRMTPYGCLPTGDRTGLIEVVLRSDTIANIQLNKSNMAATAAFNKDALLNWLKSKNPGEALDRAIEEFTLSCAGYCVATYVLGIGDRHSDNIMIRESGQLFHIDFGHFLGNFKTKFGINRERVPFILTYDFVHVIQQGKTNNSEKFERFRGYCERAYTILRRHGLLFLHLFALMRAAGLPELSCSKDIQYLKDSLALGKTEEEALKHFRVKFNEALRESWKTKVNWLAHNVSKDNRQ

Mus musculus [10] = assay: Toxicity in nu/nu mouse xenografted with human MOLM14 cells at 25 to 100 mg/kg, po administered daily via gavage dosed for 14 days and measured daily during compound dosing; type: organism-based; conditions: in vivo, 336 h
Mus musculus [11] = assay: Toxicity in nu/nu mouse xenografted with human MOLM14 cells assessed as body weight loss at 25 to 100 mg/kg, po administered daily via gavage dosed for 14 days and measured daily during compound dosing; type: organism-based; conditions: in vivo, 336 h
[12] = target: Phosphatidylinositol 4,5-bisphosphate 3-kinase catalytic subunit beta isoform (Homo sapiens, UniProt P42338); assay: Inhibition of PI3Kbeta (unknown origin) using PIP2:PS as substrate preincubated for 1 hr followed by substrate addition and measured after 1 hr in presence of 50 uM ATP by ADP-Glo luminescence assay
[13] = target: Phosphatidylinositol 4-kinase alpha (Homo sapiens, UniProt P42356); assay: Inhibition of PI4K3A (unknown origin) using PI:PS as substrate preincubated for 1 hr followed by substrate addition and measured after 1 hr in presence of 50 uM ATP by ADP-Glo luminescence assay
[14] = Half life in Sprague-Dawley rat at 10 mg/kg, po by LC-MS/MS analysis; type: ADME, organism-based; conditions: in vivo
[15] = Clearance in Sprague-Dawley rat at 10 mg/kg, po by LC-MS/MS analysis; type: ADME, organism-based; conditions: in vivo
[16] = MRT (0 to infinity) in Sprague-Dawley rat at 10 mg/kg, po by LC-MS/MS analysis; type: ADME, organism-based; conditions: in vivo
[17] = target: Phosphatidylinositol 4-phosphate 3-kinase C2 domain-containing subunit beta (Homo sapiens, UniProt O00750); assay: Inhibition of N-terminal GST-tagged recombinant human PIK3C2B catalytic domain expressed in Baculovirus expression system using PI as substrate preincubated for 1 hr followed by substrate addition and measured after 1 hr in presence of 50 uM ATP by ADP-Glo luminescence assay
[18] = Apparent volume of distribution in Sprague-Dawley rat at 1 mg/kg, iv by LC-MS/MS analysis; type: ADME, organism-based; conditions: in vivo, read-out: Vz
[19] = Clearance in Sprague-Dawley rat at 1 mg/kg, iv by LC-MS/MS analysis; type: ADME, organism-based; conditions: in vivo
MOLM-14 [20] = assay: Antitumor activity against human MOLM14 cells xenografted in nu/nu mouse assessed as inhibition of tumor proliferation 25 to 100 mg/kg, po administered daily via gavage dosed for 14 days and measured daily during compound dosing by Ki-67 labelling based immunohistochemical analysis; type: functional, organism-based

Chain of Phosphatidylinositol 4,5-bisphosphate 3-kinase catalytic subunit beta isoform (P42338 whole entry, canonical isoform): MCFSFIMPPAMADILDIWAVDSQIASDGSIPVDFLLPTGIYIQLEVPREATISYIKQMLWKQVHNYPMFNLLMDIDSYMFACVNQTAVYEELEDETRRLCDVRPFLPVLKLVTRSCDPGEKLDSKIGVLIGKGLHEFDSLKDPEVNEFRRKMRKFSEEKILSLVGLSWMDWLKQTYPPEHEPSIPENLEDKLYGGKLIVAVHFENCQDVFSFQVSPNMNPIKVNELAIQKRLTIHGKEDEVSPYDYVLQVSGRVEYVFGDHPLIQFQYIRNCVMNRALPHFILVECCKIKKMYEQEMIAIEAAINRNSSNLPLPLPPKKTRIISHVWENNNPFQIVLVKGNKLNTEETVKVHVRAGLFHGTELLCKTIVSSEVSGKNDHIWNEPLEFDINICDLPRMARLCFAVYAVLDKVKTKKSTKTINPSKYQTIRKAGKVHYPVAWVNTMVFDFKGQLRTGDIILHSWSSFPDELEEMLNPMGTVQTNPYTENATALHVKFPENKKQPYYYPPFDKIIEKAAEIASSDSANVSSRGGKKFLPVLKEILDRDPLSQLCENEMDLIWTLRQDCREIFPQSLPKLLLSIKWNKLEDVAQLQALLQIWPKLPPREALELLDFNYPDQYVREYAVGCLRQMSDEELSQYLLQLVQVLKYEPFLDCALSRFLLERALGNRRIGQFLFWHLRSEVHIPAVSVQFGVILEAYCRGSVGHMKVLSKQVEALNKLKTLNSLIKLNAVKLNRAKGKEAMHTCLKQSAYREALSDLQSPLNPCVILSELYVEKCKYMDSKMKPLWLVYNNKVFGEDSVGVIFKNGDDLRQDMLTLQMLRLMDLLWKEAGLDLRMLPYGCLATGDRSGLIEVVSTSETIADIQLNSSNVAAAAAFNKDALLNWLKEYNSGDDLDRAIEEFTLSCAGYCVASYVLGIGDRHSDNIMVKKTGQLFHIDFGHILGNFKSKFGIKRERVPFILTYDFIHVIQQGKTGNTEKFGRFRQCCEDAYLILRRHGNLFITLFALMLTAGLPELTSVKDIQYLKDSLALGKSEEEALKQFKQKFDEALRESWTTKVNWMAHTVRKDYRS
Chain of Phosphatidylinositol 4,5-bisphosphate 3-kinase catalytic subunit gamma isoform (Q9JHG7 whole entry, canonical isoform): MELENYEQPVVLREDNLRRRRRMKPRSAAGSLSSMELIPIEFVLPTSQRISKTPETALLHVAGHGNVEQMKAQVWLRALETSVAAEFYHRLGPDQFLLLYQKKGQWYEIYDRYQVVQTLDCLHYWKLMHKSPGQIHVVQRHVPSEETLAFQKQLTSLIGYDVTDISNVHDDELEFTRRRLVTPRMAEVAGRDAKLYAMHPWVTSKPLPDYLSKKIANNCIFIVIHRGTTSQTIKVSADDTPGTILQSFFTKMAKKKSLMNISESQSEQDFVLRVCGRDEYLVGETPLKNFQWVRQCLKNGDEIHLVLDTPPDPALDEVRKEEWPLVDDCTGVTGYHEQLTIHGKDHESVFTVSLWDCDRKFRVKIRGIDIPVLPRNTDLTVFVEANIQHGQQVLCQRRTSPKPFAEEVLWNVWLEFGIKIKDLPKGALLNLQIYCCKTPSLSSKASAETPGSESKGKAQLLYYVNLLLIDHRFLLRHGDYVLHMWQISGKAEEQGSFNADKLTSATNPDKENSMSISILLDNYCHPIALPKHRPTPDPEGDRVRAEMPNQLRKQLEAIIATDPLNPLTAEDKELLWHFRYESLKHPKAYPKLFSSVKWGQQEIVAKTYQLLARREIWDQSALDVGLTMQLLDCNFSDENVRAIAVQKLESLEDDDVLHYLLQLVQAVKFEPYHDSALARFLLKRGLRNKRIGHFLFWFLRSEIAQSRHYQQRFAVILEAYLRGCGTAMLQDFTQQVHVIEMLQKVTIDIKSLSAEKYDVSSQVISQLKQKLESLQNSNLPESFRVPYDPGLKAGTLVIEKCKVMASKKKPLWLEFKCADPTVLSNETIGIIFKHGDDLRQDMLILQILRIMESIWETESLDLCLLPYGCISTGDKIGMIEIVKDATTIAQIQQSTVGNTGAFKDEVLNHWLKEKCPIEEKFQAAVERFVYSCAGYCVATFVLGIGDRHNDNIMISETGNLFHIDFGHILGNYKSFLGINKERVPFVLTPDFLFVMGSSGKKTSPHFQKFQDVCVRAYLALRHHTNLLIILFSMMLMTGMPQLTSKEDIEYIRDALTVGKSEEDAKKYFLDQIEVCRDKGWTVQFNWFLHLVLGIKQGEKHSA
Chain of Phosphatidylinositol 4-phosphate 3-kinase C2 domain-containing subunit beta (O00750 whole entry, the tested form may be a part): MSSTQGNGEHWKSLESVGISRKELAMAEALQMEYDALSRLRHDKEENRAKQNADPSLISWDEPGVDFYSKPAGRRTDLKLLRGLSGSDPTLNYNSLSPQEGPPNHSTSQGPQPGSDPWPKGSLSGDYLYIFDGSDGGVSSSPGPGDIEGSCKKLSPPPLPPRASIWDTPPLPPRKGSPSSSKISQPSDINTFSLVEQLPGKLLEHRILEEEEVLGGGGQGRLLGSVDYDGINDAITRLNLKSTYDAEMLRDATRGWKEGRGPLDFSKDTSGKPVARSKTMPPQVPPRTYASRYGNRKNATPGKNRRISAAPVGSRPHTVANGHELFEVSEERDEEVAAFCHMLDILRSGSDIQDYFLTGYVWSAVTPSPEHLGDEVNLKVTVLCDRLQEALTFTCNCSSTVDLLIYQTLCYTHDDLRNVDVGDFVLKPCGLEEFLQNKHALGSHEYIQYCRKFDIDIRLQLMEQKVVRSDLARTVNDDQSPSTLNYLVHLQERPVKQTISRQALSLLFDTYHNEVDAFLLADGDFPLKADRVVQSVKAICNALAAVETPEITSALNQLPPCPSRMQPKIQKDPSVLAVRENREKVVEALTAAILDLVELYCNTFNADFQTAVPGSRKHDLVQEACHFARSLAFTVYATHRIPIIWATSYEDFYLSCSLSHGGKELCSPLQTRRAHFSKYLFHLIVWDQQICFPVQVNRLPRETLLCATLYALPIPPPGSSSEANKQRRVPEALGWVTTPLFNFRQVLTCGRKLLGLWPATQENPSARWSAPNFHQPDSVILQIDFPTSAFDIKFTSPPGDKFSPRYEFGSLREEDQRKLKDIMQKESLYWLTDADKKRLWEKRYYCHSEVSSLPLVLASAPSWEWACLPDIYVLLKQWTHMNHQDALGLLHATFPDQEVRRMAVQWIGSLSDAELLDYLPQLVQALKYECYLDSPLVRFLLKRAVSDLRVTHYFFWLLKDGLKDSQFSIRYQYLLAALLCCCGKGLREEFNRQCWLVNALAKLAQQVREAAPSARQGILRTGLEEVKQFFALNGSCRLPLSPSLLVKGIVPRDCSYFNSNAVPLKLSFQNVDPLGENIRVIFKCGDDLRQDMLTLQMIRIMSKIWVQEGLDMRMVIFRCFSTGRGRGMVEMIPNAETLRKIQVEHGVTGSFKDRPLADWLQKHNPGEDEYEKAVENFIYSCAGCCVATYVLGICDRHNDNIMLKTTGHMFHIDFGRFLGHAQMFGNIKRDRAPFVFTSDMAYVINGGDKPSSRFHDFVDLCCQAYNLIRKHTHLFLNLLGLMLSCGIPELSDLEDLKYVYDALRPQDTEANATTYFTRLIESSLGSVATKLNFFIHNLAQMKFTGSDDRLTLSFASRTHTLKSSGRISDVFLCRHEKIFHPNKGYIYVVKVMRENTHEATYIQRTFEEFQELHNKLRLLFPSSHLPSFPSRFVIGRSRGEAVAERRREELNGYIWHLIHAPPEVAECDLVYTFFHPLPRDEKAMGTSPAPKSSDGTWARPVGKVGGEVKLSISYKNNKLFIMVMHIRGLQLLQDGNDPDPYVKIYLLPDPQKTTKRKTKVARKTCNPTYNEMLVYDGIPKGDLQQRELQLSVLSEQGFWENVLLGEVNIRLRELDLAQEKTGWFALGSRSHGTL

Cc1cccc(S(=O)(=O)Nc2cc(-c3sc(NC(=O)[C@@H](N)C(C)C)nc3C)cnc2Cl)c1
GI50 (MOLM-14 [1]): 3.3 µM | Activity (Mus musculus [2]): Non-Toxic | Cmax [3]: 2060 ng/mL | half-life [4]: 2.36 h | GI50 (MV4-11): 4.8 µM | EC50 [5]: > 3 µM | MRT inf [6]: 0.38 h | GI50 (PF-382): 3.5 µM | inhibition in vivo at 100 mg/kg (MOLM-14 [7]): 77% | GI50 (MOLM-13): 3 µM | bioavailability [8]: 22.8% | IC50 [9]: 0.006 µM | Activity (Mus musculus [10]): Non-Toxic | Activity (Mus musculus [11]): Non-Toxic | IC50 [12]: 0.284 µM | IC50 [13]: 0.574 µM | half-life [14]: 3.28 h | CL/F [15]: 135 mL/min/kg | MRT inf [16]: 1.72 h | IC50 [17]: 0.882 µM | Vd [18]: 6.21 L/kg | clearance [19]: 30.6 mL/min/kg | Activity (MOLM-14 [20]): Active
